Key:
Assay type in all cases: cell-based
c-Rel = target: T1, c-Rel (Homo sapiens, UniProt Q04864); test: Western blot of THP-1 nuclear extracts: c-Rel
T1 construct: a western blot assay of THP1 nuclear c-Rel, p50 and p65 proteins was carried out; endogenous in cells; host or cells: THP-1; Jurkat
T1 sequence (Q04864 1-619): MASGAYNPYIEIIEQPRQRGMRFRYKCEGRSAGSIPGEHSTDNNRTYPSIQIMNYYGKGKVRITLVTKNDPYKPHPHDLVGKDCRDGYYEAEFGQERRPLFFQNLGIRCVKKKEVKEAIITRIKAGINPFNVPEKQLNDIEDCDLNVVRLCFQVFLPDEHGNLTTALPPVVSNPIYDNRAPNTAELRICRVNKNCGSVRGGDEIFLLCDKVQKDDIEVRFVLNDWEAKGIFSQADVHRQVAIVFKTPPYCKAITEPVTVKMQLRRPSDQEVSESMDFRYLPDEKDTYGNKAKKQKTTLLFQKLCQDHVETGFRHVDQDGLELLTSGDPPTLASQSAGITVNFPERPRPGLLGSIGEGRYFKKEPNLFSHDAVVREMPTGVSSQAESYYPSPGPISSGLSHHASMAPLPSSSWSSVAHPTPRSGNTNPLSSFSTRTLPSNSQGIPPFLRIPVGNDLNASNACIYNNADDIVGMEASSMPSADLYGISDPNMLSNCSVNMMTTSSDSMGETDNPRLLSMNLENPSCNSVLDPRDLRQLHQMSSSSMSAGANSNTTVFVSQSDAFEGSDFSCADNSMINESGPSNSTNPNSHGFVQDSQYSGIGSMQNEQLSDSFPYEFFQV
Protocol: The THP-1 cell, Jurkat cell and RAW264.7 cell line were obtained from American Type Culture Collection (Manassas, Va.). The THP-1 Jurkat cells were cultured in RPMI 1640 (ATCC, Manassas, Va.), supplemented with 10% FCS (ATCC, Manassas, Va.), and 1% penicillin/Streptomycin (Gibco-BRL, New York, N.Y.). The RAW264.7 cells were cultured in DMEM (ATCC, Manassas, Va.) supplemented with 10% FCS (ATCC, Manassas, Va.), and 1% penicillin/Streptomycin (Gibco-BRL, New York, N.Y.). The cells were stimulated with human or murine recombinant IFNγ (100 ng/ml) for 10 h followed by LPS (1 μg/ml) or SAC (0.025%) CpG ([…]) in the presence or absence of Compound 50 at different concentrations for an additional incubation.
THP-1 cells were suspended in 20 volumes of buffer A containing 10 mM KCl, 10 mM HEPES (pH 7.9), 1 mM MgCl2, 1 mM dithiothreitol (DTT), 0.1% Nonidet p40 (NP-40), and 0.5 mM phenylmethylsulfonyl fluoride (PMSF) and homogenized and centrifuged at 10,000 rpm at 4C afor 5 min. Nuclear pellets were then suspended in buffer C containing 400 mM NaCl, 20 mM HEPES 9, pH 7.9), 15 mM MgCl2, 0.2 mM EDTA, 1 mM DTT, 25% glycerol, 1 mM PMSF, and 10 ug of leupeptin, 20 ug of pepstatin, and 10 ug/ml antipain, incubated for 30 min at 4C, and centrifuged at 14,000 rpm for 20 min. The supernatants were dialyzed against buffer D containing 100 mM NaCl, 20 mM HEPES (pH 7.9), 20% glycerol, 1 mM PMSF, and 1 mM DTT.
The 10% SDS Polyacrylamide gels (Inveitrogen) were transferred to Pure Nitrocellulose membrane (BioRed, Hercules, Calif.). The membranes were blocked with 5% milk in TBST buffer and incubated with anti-c-Rel, anti-p65, anti-p50, anti-ICSBP or anti-PU-1 antibody (all the antibodies were purchased from Santa Cruz) at a dilution of 1:500 for 1 h at room temperature or overnight at 4C. […]
Of the transcription factors that have been analyzed, two factors, ICSBP and c-Rel, seem to be affected by Compound 4/Compound 50 treatment. […]

IκBα = test: Inducible degradation of IκBα (Western blot and FACS); settings: IFN-γ/LPS or IFN-γ/SAC, 500 nM, 30 min and 2 hrs
Protocol: IκB degradation is one of the steps in the signaling pathway of NF-κB dependent genes. The activity of Compound 50 in inducible degradation of IκBα and IκBβ was investigated in THP-1 cells using Western blot and FACS analysis. […] Similar results were observed from the Compound 50 pre-treatment samples in which Compound 50 was added 30 min before stimulation.

p52 = p52 nuclear translocation in IFNγ+LPS-stimulated THP1 cells (immunoblot); settings: 100 nM, 6 h
Protocol: RelB and p52 are two members of Rel family, which are preferentially complexed with each other. To determine the effect of Compound 50 on p52 and Rel-B nuclear translocation, THP1 cells were stimulated with IFNγ+LPS in either the presence or absence of 100 nM Compound 50 and the distribution of p52 and Rel-B was determined by immunoblotting of nuclear at 6 h post-treatment.

Q: Which “level of nuclear c-Rel” value (c-Rel; THP-1 nuclear extracts, IFN-γ plus LPS or IFN-γ plus SAC, post-treatment level equal to or below non-stimulated level) does the source give for `Cc1cccc(/C=N/Nc2cc(N3CCOCC3)nc(OCCc3ccccn3)n2)c1` [Compound 50, N-(3-Methyl-benzylidene)-N′-[6-morpholin-4-yl-2-(2-pyridin-2-yl-ethoxy)-pyrimidin-4-yl]-hydrazine] here?
A: significantly reduced

Q: What about the “transcription factor c-Rel affected by treatment” value (c-Rel; of the transcription factors analyzed) of the same compound?
A: affected

Q: And the “amount of IκBα in the cytoplasm, with vs without compound” value (IκBα)?
A: no significant difference

Q: And the “nuclear p52” value (p52)?
A: No significant difference

Reference: patent US20120021434A1, “METHOD FOR TREATING B CELL REGULATED AUTOIMMUNE DISORDERS” (Synta Pharmaceuticals Corp., priority 2005, published 2012)
